{"source": "patent US5998521A", "about": "“Aqueous fluoropolymer compositions and method of preparing the same” (3M Innovative Properties Company, priority 1996, dated 1999)", "key": {"[1]": {"assay": "Bacterial sludge contact test", "description": "(§1) The environmental stability of C6 F13 CF(CF3)COO^- NH4^+ was investigated under ambient conditions using a bacterial sludge contact test. In this test, bacterial sludge was obtained from the municipal waste treatment plant at Pig's Eye, Minn., the sludge was centrifuged to collect the water-insoluble high density solids, and was reconstituted in water to a standard level of about 2000 ppm of total suspended solids. A 5 mL aliquot of the 2000 ppm sludge in water was placed in each of several 20 mL vials, and enough of the carboxylate salt was added to each vial to achieve a concentration of about 496 ppm (1 millimolar). Each vial was tightly capped with a septum cap and was allowed to stand at room temperature. At intervals, the concentrations of perfluoroolefin and perfluoromonohydride gases in each headspace were measured by removing a gas sample from the space over the liquid, using a Hewlitt Packard Gas Chromatograph with a headspace sampling accessory. The peak areas determined from each gas sample were compared to a standard series made by placing increasing concentrations of a defined mixture of perfluoroolefin and perfluoromonohydride in water in the same types of vials, and subjecting the headspaces in the vials to the same analytical procedure. Results, given below, state the complete conversion relative to theoretical percent of the amount of perfluoroolefin/perfluoromonohydride mixture formed relative to that expected from complete conversion of the salt to volatile fluorocarbons. A control experiment using water with no sludge was also run at the 28 day test point."}, "bacterial sludge": {"test_system": "bacterial sludge", "assay": "Bacterial sludge contact test", "settings": "28 days, ambient conditions", "description": "as §1"}, "[2]": {"assay": "Thermogravimetric analysis of neat perfluorocarboxylate salts", "assay_type": "physicochemical", "settings": "neat salt, nitrogen, 10° C./min", "from_the_text": "Thermal degradation measurements were made on a series of neat perfluorocarboxylate salts, including several α-branched open chain structures (Examples N2-N9), a primarily linear open chain structure (Example N10-Fluorad™ FC-143 Fluorochemical Surfactant, commercially available from 3M Company, St. Paul, Minn.), and a closed chain (i.e., cyclic) structure (Example N11--made by the electrochemical fluorination of benzoic acid and hydrolysis in the presence of KOH, as described in U.S. Pat. No. 2,567,011 (Diesslin et al.)).\nThe perfluorocarboxylate salts were tested using a Perkin-Elmer TGA 7 thermogravimetric analysis apparatus and a salt sample size of approximately 5 mg, a heating rate of 10° C./min, and a nitrogen gas flow rate of 40-45 mL/min. Using the TGA 7 software, the following temperatures were recorded: (1) the onset temperature of decomposition, (2) the temperature at which 50% of the sample weight was lost, and (3) the temperature at which 90% of the sample weight was lost."}}}
{"molecule": "O=C(O)C(F)(C(F)(F)F)C(F)(F)C(F)(F)C(F)(F)C(F)(F)C(F)(F)C(F)(F)F", "note": "(stereo not shown) [Example M16, C6 F13 CF(CF3)COO^- H4 N^+]", "values": [{"measurement": "percent perfluoroolefin/perfluoromonohydride formed at 672 h, 1000 µM", "setting": "[1]; Day 28, no sludge", "value": 32, "unit": "%"}, {"measurement": "percent perfluoroolefin/perfluoromonohydride formed at 24 h, 1000 µM", "setting": "[1]; bacterial sludge, Day 1, with sludge", "value": 4, "unit": "%"}, {"measurement": "percent perfluoroolefin/perfluoromonohydride formed at 96 h, 1000 µM", "setting": "[1]; bacterial sludge, Day 4, with sludge", "value": 13, "unit": "%"}, {"measurement": "percent perfluoroolefin/perfluoromonohydride formed at 168 h, 1000 µM", "setting": "[1]; bacterial sludge, Day 7, with sludge", "value": 23, "unit": "%"}, {"measurement": "percent perfluoroolefin/perfluoromonohydride formed at 336 h, 1000 µM", "setting": "[1]; bacterial sludge, Day 14, with sludge", "value": 44, "unit": "%"}, {"measurement": "percent perfluoroolefin/perfluoromonohydride formed at 672 h, 1000 µM", "setting": "[1]; bacterial sludge, Day 28, with sludge", "value": 70, "unit": "%"}, {"measurement": "effect of sludge on amount of perfluoroolefin/perfluoromonohydride", "setting": "bacterial sludge", "value": "more than doubled"}, {"measurement": "Temperature for: 50% loss", "setting": "[2]", "value": 179, "unit": "°C"}, {"measurement": "Temperature for: 90% loss", "setting": "[2]", "value": 193, "unit": "°C"}, {"measurement": "Temperature for: Onset", "setting": "[2]", "value": 165, "unit": "°C"}]}
